{"source": "patent US11833161B2", "about": "“Compositions and methods for treatment of skin infections” (priority 2015, dated 2023)", "origin": "cited, not measured here", "key": {"[1]": {"system": "cutaneous warts", "conditions": "meta-analysis of trials, topical treatment of cutaneous warts; range in brackets"}, "[2]": {"system": "warts (verrucae)", "conditions": "one case, 2 large mosaic verruca; previous treatments by 2 podiatrists and a dermatologist over 14 months"}}}
{"compound": "O=C(O)c1ccccc1O", "note": "[salicylic acid]", "values": [{"measurement": "cure rate", "setting": "[1]", "value": "52% (0-87%)"}]}
{"compound": "CN/C(=N/CCSCc1nc[nH]c1C)NC#N", "note": "[cimetidine]", "values": [{"measurement": "outcome of previous treatments in the difficult case", "setting": "[2]", "value": "unsuccessful"}]}
{"compound": "Vitamin A", "values": [{"measurement": "outcome of previous treatments in the difficult case", "setting": "[2]", "value": "unsuccessful"}]}
